In patent publication US20240166652A1, “MODULATORS OF THE INTEGRATED STRESS PATHWAY” (Calico Life Sciences LLC, priority 2017, published 2024) one finds EC50 data, which are given here for 30 compounds.

pEC50: −log10 of the molar value.

Usually pEC50 stands for −log10 of the EC50, conventionally taken in molar units.

The test deals with ATF4 luciferase reporter in HEK293T cells. Put plainly: ATF4-Luc assay (ATF4 luciferase reporter, tunicamycin-treated HEK293T cells). As to conditions: Homo sapiens, HEK-293T; HEK293T cells carrying the ATF4 luciferase reporter, 1 μg/mL tunicamycin, 7 hours. In kind it is cell-based, human. In general terms: In a reporter assay the amount or activity of a reporter protein is the signal.
For `NCc1ccc(OCC(=O)NC23CC(NC(=O)COc4ccc(Cl)c(F)c4)(C2)C3)cn1` [Compound 259, 2-{[6-(aminomethyl)pyridin-3-yl]oxy}-N-{3-[2-(4-chloro-3-fluorophenoxy)acetamido]bicyclo[1.1.1]pentan-1-yl}acetamide], the pEC50 was 6.30 to 6.60.

For `O=C(COc1ccc(Cl)c(F)c1)NC12CC(NC(=O)COc3ccc(Cl)c(I)c3)(C1)C2` [Compound 260, 2-(4-chloro-3-fluorophenoxy)-N-{3-[2-(4-chloro-3-iodophenoxy)acetamido]-bicyclo[1.1.1]pentan-1-yl}acetamide], the negative-log EC50 (pEC50) was over 8.00. Take `Cc1noc(C)c1-c1cc(OCC(=O)NC23CC(NC(=O)COc4ccc(Cl)c(F)c4)(C2)C3)ccc1Cl` [Compound 261, 2-[4-chloro-3-(3,5-dimethyl-1,2-oxazol-4-yl)phenoxy]-N-{3-[2-(4-chloro-3-fluorophenoxy)acetamido]bicyclo[1.1.1]pentan-1-yl}acetamide]: the pEC50 was 7.30 to 8.00. Then `N#CCc1cc(OCC(=O)NC23CC(NC(=O)COc4ccc(Cl)c(F)c4)(C2)C3)ccc1Cl` [Compound 262, 2-[4-chloro-3-(cyanomethyl)phenoxy]-N-{3-[2-(4-chloro-3-fluorophenoxy)acetamido]bicyclo[1.1.1]pentan-1-yl}acetamide], with 7.30 to 8.00; and `CC(O)c1ccc(OCC(=O)NC23CC(NC(=O)COc4ccc(Cl)c(F)c4)(C2)C3)cn1` (stereo not drawn) [Compound 263, 2-(4-chloro-3-fluorophenoxy)-N-[3-(2-{[6-(1-hydroxyethyl)pyridin-3-yl]oxy}acetamido)bicyclo[1.1.1]pentan-1-yl]acetamide], with 5.70 to 6.30; and `COC(=O)c1ccc(OCC(=O)NC23CC(NC(=O)COc4ccc(Cl)c(F)c4)(C2)C3)cn1` [Compound 264, methyl 5-[2-({3-[2-(4-chloro-3-fluorophenoxy)acetamido]bicyclo-[1.1.1]pentan-1-yl}amino)-2-oxoethoxy]pyridine-2-carboxylate], with 5.70 to 6.30. Then `O=C(COc1ccnc(C(F)(F)F)c1)NC12CC(NC(=O)COc3ccc4c(c3)OC(F)(F)O4)(C1)C2` [Compound 265, 2-[(2,2-difluoro-2H-1,3-benzodioxol-5-yl)oxy]-N-[3-(2-{[2-(trifluoromethyl)pyridin-4-yl]oxy}acetamido)bicyclo[1.1.1]pentan-1-yl]acetamide], with 7.30 to 8.00. With `O=C(COc1ccc(C(F)(F)F)nc1)NC12CC(NC(=O)COc3ccc4c(c3)OC(F)(F)O4)(C1)C2` [Compound 266, 2-[(2,2-difluoro-2H-1,3-benzodioxol-5-yl)oxy]-N-[3-(2-{[6-(trifluoromethyl)-pyridin-3-yl]oxy}acetamido)bicyclo[1.1.1]pentan-1-yl]acetamide] the figure was over 8.00; with `N#Cc1ccc(OCC(=O)NC23CC(NC(=O)COc4ccc5c(c4)OC(F)(F)O5)(C2)C3)cn1` [Compound 267, 2-[(6-cyanopyridin-3-yl)oxy]-N-(3-{2-[(2,2-difluoro-2H-1,3-benzodioxol-5-yl)oxy]acetamido}bicyclo[1.1.1]pentan-1-yl)acetamide], 6.60 to 7.30. For `O=C(COc1ccc(C2CC2)nc1)NC12CC(NC(=O)COc3ccc4c(c3)OC(F)(F)O4)(C1)C2` [Compound 268, 2-[(6-cyclopropylpyridin-3-yl)oxy]-N-(3-{2-[(2,2-difluoro-2H-1,3-benzodioxol-5-yl)oxy]acetamido}bicyclo[1.1.1]pentan-1-yl)acetamide], the pEC50 is 7.30 to 8.00.

For the compound `O=C(COc1cncc(C(F)(F)F)c1)NC12CC(NC(=O)COc3ccc4c(c3)OC(F)(F)O4)(C1)C2` [Compound 269, 2-[(2,2-difluoro-2H-1,3-benzodioxol-5-yl)oxy]-N-[3-(2-{[5-(trifluoromethyl)pyridin-3-yl]oxy}acetamido)bicyclo[1.1.1]pentan-1-yl]acetamide], the pEC50 is 7.30 to 8.00. With `N#Cc1cc(OCC(=O)NC23CC(NC(=O)COc4ccc5c(c4)OC(F)(F)O5)(C2)C3)ccn1` [Compound 270, 2-[(2-cyanopyridin-4-yl)oxy]-N-(3-{2-[(2,2-difluoro-2H-1,3-benzodioxol-5-yl)oxy]acetamido}bicyclo[1.1.1]pentan-1-yl)acetamide] the figure was 6.30 to 6.60; with `COc1ccc(OCC(=O)NC23CC(NC(=O)COc4ccc5c(c4)OC(F)(F)O5)(C2)C3)cn1` [Compound 271, 2-[(2,2-difluoro-2H-1,3-benzodioxol-5-yl)oxy]-N-(3-{2-[(6-methoxypyridin-3-yl)oxy]acetamido}bicyclo[1.1.1]pentan-1-yl)acetamide], 7.30 to 8.00. Consider `O=C(COc1ccc(Cl)c(F)c1)NC12CCC(NC(=O)COc3ccc(Cl)c(F)c3)(CC1)C(=O)C2` [Compound 272, N,N′-(2-oxobicyclo[2.2.2]octane-1,4-diyl)bis[2-(4-chloro-3-fluorophenoxy)acetamide]], for which the pEC50 is over 8.00. Then `O=C(COc1ccc(Cl)c(F)c1)NC12CCC(NC(=O)COc3ccc(Cl)c(F)c3)(CC1)C(O)C2` (stereo not drawn) [Compound 273, N,N′-(2-hydroxybicyclo[2.2.2]octane-1,4-diyl)bis[2-(4-chloro-3-fluorophenoxy)acetamide]], with over 8.00.

Turning to `O=C(COc1ccc2c(c1)OC(F)(F)O2)NC12CC(NC(=O)COc3ccc4c(c3)OC(F)(F)O4)(C1)C2` [Compound 274, N,N′-(bicyclo[1.1.1]pentane-1,3-diyl)bis{2-[(2,2-difluoro-2H-1,3-benzodioxol-5-yl)oxy]acetamide}], the pEC50 is over 8.00.

With `COC(=O)c1cc(OCC(=O)NC23CC(NC(=O)COc4ccc5c(c4)OC(F)(F)O5)(C2)C3)ccc1Cl` [Compound 275, methyl 2-chloro-5-{2-1(3-{2-[(2,2-difluoro-2H-1,3-benzodioxol-5-yl)oxy]acetamido}bicyclo[1.1.1]pentan-1-yl)aminol-2-oxoethoxy}benzoate], the pEC50 was 5.70 to 6.30. With `O=C(COc1ccc(Cl)c(CO)c1)NC12CC(NC(=O)COc3ccc4c(c3)OC(F)(F)O4)(C1)C2` [Compound 276, 2-[4-chloro-3-(hydroxymethyl)phenoxy]-N-(3-{2-[(2,2-difluoro-2H-1,3-benzodioxol-5-yl)oxy]acetamido}bicyclo[1.1.1]pentan-1-yl)acetamide] the figure was 7.30 to 8.00. With `N#Cc1cc(OCC(=O)NC23CC(NC(=O)COc4ccc(Cl)c(F)c4)(C2)C3)ccn1` [Compound 277, 2-(4-chloro-3-fluorophenoxy)-N-(3-{2-[(2-cyanopyridin-4-yl)oxy]acetamido}bicyclo[1.1.1]pentan-1-yl)acetamide] the figure was 6.30 to 6.60; with `O=C(COc1ccc(S(F)(F)(F)(F)F)cc1)NC12CC(NC(=O)COc3ccc4c(c3)OC(F)(F)O4)(C1)C2` [Compound 278, 2-[(2,2-difluoro-2H-1,3-benzodioxol-5-yl)oxy]-N-(3-{2-[4-(pentafluoro-λ^6-sulfanyl)phenoxy]acetamido}bicyclo[1.1.1]pentan-1-yl)acetamide], 7.30 to 8.00; with `O=C(COCc1ccc(OC(F)F)nc1)NC12CC(NC(=O)COc3ccc(Cl)c(F)c3)(C1)C2` [Compound 279, 2-(4-chloro-3-fluorophenoxy)-N-[3-(2-{[6-(difluoromethoxy)pyridin-3-yl]methoxy}acetamido)bicyclo[1.1.1]pentan-1-yl]acetamide], 6.30 to 6.60. Then `O=C(COCc1ccc(-n2cccn2)nc1)NC12CC(NC(=O)COc3ccc(Cl)c(F)c3)(C1)C2` [Compound 280, 2-(4-chloro-3-fluorophenoxy)-N-[3-(2-{[6-(1H-pyrazol-1-yl)pyridin-3-yl]methoxy}acetamido)bicyclo[1.1.1]pentan-1-yl]acetamide], with under 5.70. Take `COc1ccc(COCC(=O)NC23CC(NC(=O)COc4ccc(Cl)c(F)c4)(C2)C3)cn1` [Compound 281, 2-(4-chloro-3-fluorophenoxy)-N-(3-{2-[(6-methoxypyridin-3-yl)methoxy]acetamido}bicyclo[1.1.1]pentan-1-yl)acetamide]: the pEC50 is 5.70 to 6.30.

For `Cc1cc(COCC(=O)NC23CC(NC(=O)COc4ccc(Cl)c(F)c4)(C2)C3)cc(C)n1` [Compound 282, 2-(4-chloro-3-fluorophenoxy)-N-(3-{2-[(2,6-dimethylpyridin-4-yl)methoxy]acetamido}bicyclo[1.1.1]pentan-1-yl)acetamide], the pEC50 is under 5.70. Then `N#Cc1ccc(COCC(=O)NC23CC(NC(=O)COc4ccc(Cl)c(F)c4)(C2)C3)cn1` [Compound 283, 2-(4-chloro-3-fluorophenoxy)-N-(3-{2-[(6-cyanopyridin-3-yl)methoxy]acetamido}bicyclo[1.1.1]pentan-1-yl)acetamide], with 5.70 to 6.30.

Take `O=C(COCc1ccc(C(F)(F)F)nc1)NC12CC(NC(=O)COc3ccc(Cl)c(F)c3)(C1)C2` [Compound 284, 2-(4-chloro-3-fluorophenoxy)-N-[3-(2-{[6-(trifluoromethyl)pyridin-3-yl]methoxy}acetamido)bicyclo[1.1.1]pentan-1-yl]acetamide]: the pEC50 was 7.30 to 8.00.

Consider `O=C(COc1ccc(Cl)c(Cl)c1)NC12CC(NC(=O)COc3cnc(C4CC4)cn3)(C1)C2` [Compound 285, 2-[(5-cyclopropylpyrazin-2-yl)oxy]-N-{3-[2-(3,4-dichlorophenoxy)acetamido]-bicyclo[1.1.1]pentan-1-yl}acetamide], for which the pEC50 was 6.60 to 7.30. Then `O=C(COc1ccc(Cl)c(F)c1)NC12CC(NCC(=O)c3ccc(Cl)c(Cl)c3)(C1)C2` [Compound 286, 2-(4-chloro-3-fluorophenoxy)-N-(3-{[2-(3,4-dichlorophenyl)-2-oxoethyl]amino}bicyclo[1.1.1]pentan-1-yl)acetamide], with 6.60 to 7.30; and `O=C(COc1ccc(Cl)c(Cl)c1)NC12CC(NCC(=O)c3ccc(Cl)cc3)(C1)C2` [Compound 287, N-(3-{[2-(4-chlorophenyl)-2-oxoethyl]amino}bicyclo[1.1.1]pentan-1-yl)-2-(3,4-dichlorophenoxy)acetamide], with 6.60 to 7.30; and `O=C(COc1ccc(Cl)c(Cl)c1)NC12CC(NCC(O)c3ccc(Cl)cc3)(C1)C2` (stereo not drawn) [Compound 288, N-(3-{[2-(4-chlorophenyl)-2-hydroxyethyl]amino}bicyclo[1.1.1]pentan-1-yl)-2-(3,4-dichlorophenoxy)acetamide], with 6.60 to 7.30.
